Test results published in ChEMBL document CHEMBL1201862, “PubChem BioAssay data set” (2004).
Several values for one entry are separate records, joined by “and”; a condition that tells them apart may be missing. Equal entries are not always repeated.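 Tested at 5 concentrations; 48 h exposure; 96-well plates; endpoints linearly interpolated, else capped at highest concentration. Here, GI50 denotes the concentration required for 50% inhibition of growth.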 Activity calls are given as the source filed them. Cut-off read from the data, not from the text of the source: active = GI50 up to about 1.1 µM and inactive = higher.

How the values were obtained:
Assay in all cases: growth of human tumour cells (NCI), 48 h
NCI-H226 = system: NCI-H226
SK-MEL-5 = system: SK-MEL-5
UO-31 = system: UO-31
M14 = system: M14
786-0 = system: 786-0
SW-620 = system: SW-620
UACC-62 = system: UACC-62
OVCAR-5 = system: OVCAR-5
IGROV-1 = system: IGROV-1
HCT-15 = system: HCT-15
RPMI-8226 = system: RPMI-8226
COLO 205 = system: COLO 205
SF-295 = system: SF-295
OVCAR-3 = system: OVCAR-3
SR = system: SR

Measured: GI50

CCOC(=O)c1ccc(/N=C\c2ccc(N(CCC#N)CCC#N)cc2)cc1
21.4 µM: HCT-15
inactive: NCI-H226 > 100 µM | SK-MEL-5 78.3 µM | UO-31 27.2 µM | M14 36.5 µM | 786-0 99.5 µM | SW-620 81.5 µM | UACC-62 21.5 µM | OVCAR-5 > 100 µM | IGROV-1 81.8 µM | RPMI-8226 65.6 µM | COLO 205 53.7 µM | SF-295 > 100 µM | OVCAR-3 > 100 µM

CCCCCCCCCCNCCSSCc1ccc(Cl)cc1
2.48 µM: HCT-15
inactive: UO-31 2.25 µM | 786-0 5.71 µM | SW-620 1.6 µM | OVCAR-5 1.91 µM | IGROV-1 2.94 µM | COLO 205 2.39 µM | SF-295 1.91 µM | OVCAR-3 1.96 µM
active: SK-MEL-5 0.509 µM | M14 0.233 µM | UACC-62 0.407 µM

C[N+](C)(C)CC1CCC(C[N+](C)(C)C)C1=NO (stereo unspecified)
> 100 µM: HCT-15
inactive: NCI-H226 > 100 µM | SK-MEL-5 > 100 µM | UO-31 > 100 µM | M14 > 100 µM | 786-0 > 100 µM | SW-620 > 100 µM | SR > 100 µM | UACC-62 > 100 µM | IGROV-1 > 100 µM | RPMI-8226 > 100 µM | COLO 205 > 100 µM | SF-295 > 100 µM | OVCAR-3 > 100 µM

CC(=O)OC1C=CC2CCN3C(=O)c4cc5c(cc4[C@H]1C23)OCO5 (stereo partly specified)
> 100 µM: HCT-15
inactive: NCI-H226 > 100 µM | UO-31 > 100 µM | M14 > 100 µM | 786-0 > 100 µM | SW-620 > 100 µM | SR > 100 µM | UACC-62 > 100 µM | IGROV-1 > 100 µM | RPMI-8226 > 100 µM | COLO 205 > 100 µM | SF-295 > 100 µM | OVCAR-3 > 100 µM

CC(=O)OCC1OC(n2c(=O)n(-c3ccccc3)c(=O)c3ccccc32)C(OC(C)=O)C(OC(C)=O)C1OC(C)=O (stereo unspecified)
inactive: NCI-H226 > 100 µM | SK-MEL-5 > 100 µM | UO-31 > 100 µM | M14 > 100 µM | 786-0 > 100 µM | SW-620 > 100 µM | UACC-62 > 100 µM | OVCAR-5 > 100 µM | IGROV-1 > 100 µM | RPMI-8226 73.8 µM | COLO 205 > 100 µM | SF-295 > 100 µM | OVCAR-3 > 100 µM
> 100 µM: HCT-15

CCCCCCCCCCCCCCCCCCOCC(C[N+]1(C)CCC(O)CC1)OCC (stereo unspecified)
inactive: NCI-H226 3.08 µM | UO-31 11.9 µM | M14 9.51 µM | 786-0 4.18 µM | SW-620 5.48 µM | SR 1.78 µM | UACC-62 5.27 µM | IGROV-1 5.13 µM | RPMI-8226 2.77 µM | COLO 205 3.38 µM | SF-295 4.68 µM | OVCAR-3 3.85 µM

O=C1[C@H]2ON(c3ccccc3)C(c3ccccc3F)[C@H]2C(=O)N1c1ccc(Cc2ccc(N3C(=O)[C@@H]4ON(c5ccccc5)C(c5ccccc5F)[C@@H]4C3=O)cc2)cc1 (stereo partly specified)
> 100 µM: HCT-15
inactive: NCI-H226 > 100 µM | SK-MEL-5 > 100 µM | UO-31 > 100 µM | M14 34.8 µM | 786-0 > 100 µM | SW-620 > 100 µM | UACC-62 > 100 µM | OVCAR-5 > 100 µM | IGROV-1 > 100 µM | RPMI-8226 > 100 µM | COLO 205 > 100 µM | SF-295 67.1 µM | OVCAR-3 > 100 µM

Cn1c(=O)nc2n(-c3cccc(Cl)c3)c3ccccc3nc-2c1=O
13 µM: HCT-15
inactive: NCI-H226 22 µM | SK-MEL-5 10.5 µM | UO-31 34.9 µM | M14 7.93 µM | 786-0 15.6 µM | SW-620 11.2 µM | UACC-62 2.68 µM | OVCAR-5 22.5 µM | IGROV-1 24.8 µM | RPMI-8226 15.5 µM | COLO 205 4.11 µM | SF-295 16.6 µM | OVCAR-3 2.45 µM

COC1=CC(=O)OC(/C=C(C)/C=C/C2=C(C)CCCC2(C)C)C1 (stereo unspecified)
inactive: NCI-H226 > 100 µM | SK-MEL-5 > 100 µM | UO-31 > 100 µM | M14 > 100 µM | 786-0 > 100 µM | SW-620 > 100 µM | SR > 100 µM | UACC-62 > 100 µM | OVCAR-5 > 100 µM | IGROV-1 > 100 µM | SF-295 > 100 µM | OVCAR-3 > 100 µM

CC1OC(OC23C(=O)CC(C)(O)CC2(O)C=CC2=C3C(=O)c3ccc(C4CC(OC5CCC(OC6CC(O)C(O)C(C)O6)C(C)O5)C(O)C(C)O4)c(O)c3C2=O)CCC1O (stereo unspecified)
inactive: NCI-H226 19.5 µM and 18.6 µM | SK-MEL-5 19 µM and 16.1 µM | UO-31 18 µM and 18.4 µM | M14 18.2 µM and 13.8 µM | 786-0 17.4 µM and 15.8 µM | SW-620 4.86 µM and 3.39 µM | SR > 100 µM | UACC-62 13.8 µM and 16.3 µM | OVCAR-5 19.1 µM and 20.6 µM | IGROV-1 16.5 µM and 16.4 µM | RPMI-8226 13.2 µM and 10 µM | COLO 205 3.79 µM and 2.33 µM
